# Data: patent US4439426A, “Semisynthetic macrolidic antibiotics, intermediate compounds for their preparation and related pharmaceutical compositions containing them” (priority 1981, dated 1984)
# Experiments:
# Assay type in all cases: cell-based
# Salmonella typhy LRP 8 = assay: microbe, parasite or virus in culture; details: LRP8, solid medium, read-out: Minimum inhibiting concentration
# Description: (§1) the bacteriostatic power, expressed as the minimum inhibiting concentration (MIC) against both aerobic and anaerobic, Gram positive and Gram negative, bacterial stocks: the related results are reported in the tables 2 and 3.
# [1] = tested on: Clostridium perfrigens ATCC 3624 LRP 206; assay: microbe, parasite or virus in culture; details: ATCC3624, solid medium, anaerobic, read-out: Minimum inhibiting concentration
# Description: as §1
# [2] = tested on: Streptococcus faecalis subs. zymogenes LRP 61; assay: Minimum bactericidal concentration (MBC)
# Description: (§2) the bacterial power, expressed as the minimum bactericidal power (MBC) against some Gram positive aerobic stocks (table 5).
# [3] = tested on: Corynebacterium diphteriae LRP 24; assay: Minimum bactericidal concentration (MBC)
# Description: as §2
# [4] = tested on: Streptococcus pyogenes ATCC 8668 LRP 34; assay: Minimum bactericidal concentration (MBC)
# Description: as §2
# [5] = tested on: Streptococcus pneumoniae ATCC 6303 LRP 35; assay: Minimum bactericidal concentration (MBC)
# Description: as §2
# [6] = tested on: Staphylococcus aureus ATCC 6538 P LRP 39; assay: Minimum bactericidal concentration (MBC)
# Description: as §2
# [7] = tested on: Streptococcus pneumoniae ATCC 6303 LRP 52; assay: Bacteriostatic power in solid medium (MIC); details: solid medium
# Description: as §1
# Escherichia coli LRP 50 = assay: Bacteriostatic power in solid medium (MIC); details: solid medium
# Description: as §1
# [8] = tested on: Staphylococcus aureus ATCC 6538P LRP 39; assay: Bacteriostatic power in solid medium (MIC); details: solid medium
# Description: as §1
# [9] = tested on: Neisseria gonorrhoeae ATCC 19424 LRP 214; assay: Bacteriostatic power in solid medium (MIC); details: solid medium
# Description: as §1
# [10] = tested on: Mycoplasma hominis I ATCC 14027 LRP 211; assay: Bacteriostatic power in solid medium (MIC); details: solid medium
# Description: as §1
# [11] = tested on: Acholeplasma laidlawii ATCC 23206 LRP 204; assay: Bacteriostatic power in solid medium (MIC); details: solid medium
# Description: as §1
# [12] = tested on: Streptococcus faecalis LRP 7; assay: Bacteriostatic power in solid medium (MIC); details: solid medium
# Description: as §1
# [13] = tested on: Haemophilus influenzae ATCC 19418 LRP 213; assay: Bacteriostatic power in solid medium (MIC)
# Description: as §1
# [14] = tested on: Streptococcus faecalis subsp. zymogenes ATCC 12958 LRP 61; assay: Bacteriostatic power in solid medium (MIC); details: solid medium
# Description: as §1
# [15] = tested on: Proteus vulgaris ATCC 6380 LRP 13; assay: Bacteriostatic power in solid medium (MIC); details: solid medium
# Description: as §1
# [16] = tested on: Corynebacterium diphteriae LRP 24; assay: Bacteriostatic power in solid medium (MIC); details: solid medium
# Description: as §1
# [17] = tested on: Micrococcus luteus ATCC 15957 LRP 193; assay: Bacteriostatic power in solid medium (MIC); details: solid medium, Erythromycin resistant
# Description: as §1
# [18] = tested on: Staphylococcus aureus ATCC 6538P LRP 14; assay: Bacteriostatic power in solid medium (MIC); details: solid medium, Penycilline resistant
# Description: as §1
# Shigella sonnei LRP 5 = assay: Bacteriostatic power in solid medium (MIC); details: LRP5, read-out: Minimum inhibiting concentration
# Description: as §1
# [19] = tested on: Streptococcus pneumoniae ATCC 6303 LRP 53; assay: Bacteriostatic power in solid medium (MIC); details: solid medium
# Description: as §1
# [20] = tested on: Bacteroides fragilis ATCC 23745 LRP 205; assay: Bacteriostatic power in solid medium (MIC); details: solid medium, anaerobic
# Description: as §1
# [21] = tested on: Streptococcus pyogenes ATCC 8668 LRP 197; assay: Bacteriostatic power in solid medium (MIC); details: solid medium
# Description: as §1
# [22] = tested on: Streptococcus pyogenes ATCC 8668 LRP 34; assay: Bacteriostatic power in solid medium (MIC); details: solid medium
# Description: as §1
# [23] = tested on: Klelsiella pneumoniae LRP 54; assay: Bacteriostatic power in solid medium (MIC); details: solid medium
# Description: as §1
# Bacillus subtilis LRP 25 = assay: Bacteriostatic power in solid medium (MIC); details: solid medium
# Description: as §1
# [24] = tested on: Streptococcus pneumoniae ATCC 6303 LRP 35; assay: Bacteriostatic power in solid medium (MIC); details: solid medium
# Description: as §1
# [25] = tested on: Pseudomonas aeruginosa LRP 9; assay: Bacteriostatic power in solid medium (MIC); details: solid medium
# Description: as §1
# [26] = tested on: Micrococcus luteus ATCC 9341 LRP 6; assay: Bacteriostatic power in solid medium (MIC); details: solid medium
# Description: as §1
# [27] = tested on: Staphylococcus aureus ATCC 14154 LRP 78; assay: Bacteriostatic power in solid medium (MIC)
# Description: as §1
# [28] = tested on: Fusobacteriumnecrophroum ATCC 27852 LRP 210; assay: Bacteriostatic power in solid medium (MIC); details: solid medium, anaerobic
# Description: as §1
# [29] = tested on: Corynebacterium diphteriae LRP 24; assay: Bacteriostatic power in liquid medium (MIC); details: liquid medium
# Description: as §1
# [30] = tested on: Streptococcus faecalis subs. zymogenes ATCC 12958 LRP 61; assay: Bacteriostatic power in liquid medium (MIC); details: liquid medium
# Description: as §1
# [31] = tested on: Streptococcus pyogenes ATCC 8668 LRP 34; assay: Bacteriostatic power in liquid medium (MIC); details: liquid medium
# Description: as §1
# [32] = tested on: Streptococcus pneumoniae ATCC 6303 LRP 35; assay: Bacteriostatic power in liquid medium (MIC); details: liquid medium
# Description: as §1
# [33] = tested on: Staphylococcus aureus ATCC 6538 P LRP 39; assay: Bacteriostatic power in liquid medium (MIC); details: liquid medium
# Description: as §1
# [34] = Streptococcus pneumoniae, ATCC6303, read-out: Minimum inhibiting concentration
# [35] = Staphylococcus aureus, ATCC6538P, read-out: Minimum inhibiting concentration
# [36] = Enterococcus faecalis, ATCC12958, read-out: Minimum inhibiting concentration
# [37] = Corynebacterium, LRP24, read-out: Minimum inhibiting concentration
# [38] = Streptococcus pyogenes, ATCC8668, read-out: Minimum inhibiting concentration
# [39] = read-out: Minimum inhibiting concentration
molecule,measurement,setting,value
"CC[C@H]1OC(=O)[C@H](C)[C@@H](O[C@H]2C[C@@](C)(OC)[C@@H](O)[C@H](C)O2)[C@H](C)[C@@H](O[C@@H]2O[C@H](C)C[C@H](N(C)C)[C@H]2O)[C@](C)(O)C[C@@H](C)C(=O)[C@H](C)[C@@H](O)[C@H]1C [Erythromycin B, reference compound]",MIC,Salmonella typhy LRP 8,25 µg/mL
same,MIC,[1],1.56 µg/mL
same,MBC/MIC,[2],16
same,MBC,"[2]; Enterococcus faecalis, read-out: Minimum bactericidal concentration (MBC)",6.25 µg/mL
same,MBC/MIC,[3],16
same,MBC,"[3]; Corynebacterium, LRP24, read-out: Minimum bactericidal concentration (MBC)",0.195 µg/mL
same,MBC/MIC,[4],8
same,MBC,"[4]; Streptococcus pyogenes, ATCC8668, read-out: Minimum bactericidal concentration (MBC)",0.195 µg/mL
same,MBC/MIC,[5],4
same,MBC,"[5]; Streptococcus pneumoniae, ATCC6303, read-out: Minimum bactericidal concentration (MBC)",0.195 µg/mL
same,MBC/MIC,[6],32
same,MBC,"[6]; Staphylococcus aureus, ATCC6538, read-out: Minimum bactericidal concentration (MBC)",6.25 µg/mL
same,MIC,[7]; [34],0.024 µg/mL
same,MIC,"Escherichia coli LRP 50; Escherichia coli, LRP50, read-out: Minimum inhibiting concentration",25 µg/mL
same,MIC,[8]; [35],0.097 µg/mL
same,MIC,"[9]; Neisseria gonorrhoeae, ATCC19424, read-out: Minimum inhibiting concentration",0.097 µg/mL
same,MIC,"[10]; Metamycoplasma hominis, ATCC14027, read-out: Minimum inhibiting concentration",25 µg/mL
same,MIC,"[11]; Acholeplasma laidlawii, ATCC23206, read-out: Minimum inhibiting concentration",0.097 µg/mL
same,MIC,"[12]; Enterococcus faecalis, LRP7, read-out: Minimum inhibiting concentration",0.195 µg/mL
same,MIC,"[13]; Haemophilus influenzae, ATCC19418, read-out: Minimum inhibiting concentration",6.25 µg/mL
same,MIC,[14]; [36],0.195 µg/mL
same,MIC,"[15]; Proteus vulgaris, ATCC6380, read-out: Minimum inhibiting concentration",25 µg/mL
same,MIC,[16]; [37],0.012 µg/mL
same,MIC,"[17]; Micrococcus luteus, ATCC15957, read-out: Minimum inhibiting concentration",25 µg/mL
same,MIC,[18]; [35],0.195 µg/mL
same,MIC,Shigella sonnei LRP 5,25 µg/mL
same,MIC,[19]; [34],0.024 µg/mL
same,MIC,"[20]; Bacteroides fragilis, ATCC23745, read-out: Minimum inhibiting concentration",0.195 µg/mL
same,MIC,[21]; [38],0.024 µg/mL
same,MIC,[22]; [38],0.024 µg/mL
same,MIC,[23]; [39],25 µg/mL
same,MIC,"Bacillus subtilis LRP 25; Bacillus subtilis, LRP25, read-out: Minimum inhibiting concentration",0.049 µg/mL
same,MIC,[24]; [34],0.024 µg/mL
same,MIC,"[25]; Pseudomonas aeruginosa, LRP9, read-out: Minimum inhibiting concentration",25 µg/mL
same,MIC,"[26]; Micrococcus luteus, ATCC9341, read-out: Minimum inhibiting concentration",0.006 µg/mL
same,MIC,"[27]; Staphylococcus aureus, ATCC14154, read-out: Minimum inhibiting concentration",25 µg/mL
same,MIC,[28]; [39],6.25 µg/mL
same,MIC,[29]; [37],0.012 µg/mL
same,MIC,[30]; [36],0.39 µg/mL
same,MIC,[31]; [38],0.024 µg/mL
same,MIC,[32]; [34],0.049 µg/mL
same,MIC,"[33]; Staphylococcus aureus, ATCC6538, read-out: Minimum inhibiting concentration",0.195 µg/mL
(8S)-8-fluoroerythromycin A carbonate [P80206 carbonate],Minimum inhibiting concentration,[7],0.012 µg/mL
same,Minimum inhibiting concentration,Escherichia coli LRP 50,3.12 µg/mL
same,Minimum inhibiting concentration,[8],0.097 µg/mL
same,Minimum inhibiting concentration,[9],0.049 µg/mL
same,Minimum inhibiting concentration,[10],25 µg/mL
same,Minimum inhibiting concentration,[11],0.195 µg/mL
same,Minimum inhibiting concentration,[12],0.097 µg/mL
same,Minimum inhibiting concentration,[13]; solid medium,6.25 µg/mL
same,Minimum inhibiting concentration,[14],0.097 µg/mL
same,Minimum inhibiting concentration,[15],25 µg/mL
same,Minimum inhibiting concentration,[16],0.024 µg/mL
same,Minimum inhibiting concentration,[17],25 µg/mL
same,Minimum inhibiting concentration,[18],0.097 µg/mL
same,Minimum inhibiting concentration,[19],0.012 µg/mL
same,Minimum inhibiting concentration,[20],0.78 µg/mL
same,Minimum inhibiting concentration,[21],0.024 µg/mL
same,Minimum inhibiting concentration,[22],0.012 µg/mL
same,Minimum inhibiting concentration,[23],12.5 µg/mL
same,Minimum inhibiting concentration,Bacillus subtilis LRP 25,0.049 µg/mL
same,Minimum inhibiting concentration,[24],0.012 µg/mL
same,Minimum inhibiting concentration,[25],25 µg/mL
same,Minimum inhibiting concentration,[26],0.024 µg/mL
same,Minimum inhibiting concentration,"[27]; solid medium, Erythromycin resistant",25 µg/mL
same,Minimum inhibiting concentration,[28],6.25 µg/mL
same,Minimum inhibiting concentration,[29],0.024 µg/mL
same,Minimum inhibiting concentration,[30],0.195 µg/mL
same,Minimum inhibiting concentration,[31],0.024 µg/mL
same,Minimum inhibiting concentration,[32],0.049 µg/mL
same,Minimum inhibiting concentration,[33],0.39 µg/mL
